Experiments:
SsCK1δ/ε = test: protein kinase assay, [γ-33P] ATP; assay type: biochemical, porcine; details: 15 μM ATP; CKS peptide substrate; >10 = inhibitory but IC50 > 10 μM
Experimental: Then, we evaluated the intermediates salts 6a–f and fourteen final compounds 9a–n on four protein kinases: HsCDK5-p25 (cyclin-dependant kinase 5-p25), SsGSK-3α/β (glycogen synthase kinase-3α/β) SsCK1δ/ε (Caseine kinase 1) and HsHaspin as an essential mitotic kinase. All assays were run in the presence of 15 μM of ATP and appropriate substrates. IC50 values were determined from dose-response curves. Concerning the library of the fourteen (5Z) 3-(4-arylmethylamino)butyl-5-arylidene-2-thioxo-1,3-thiazolidine-4-ones 9a–n and also the six diamines salts 6a–f, the results are given in Table 3. […] It is interesting to note that these two compounds are respectively substituted with an hydroxyl function on para-position of the 5-arylidene moiety and also with a similar bulky group (1,3-benzodioxol-5-yl for 9j and 2,3-dihydro-benzo[1,4]dioxin-6-yl for 9n) on the arylmethylamino moiety grafted on the N-3 butyl chain.
Kinase activities for each enzyme were assayed in buffer A (25 mM Tris-HCl pH 7.5, 10 mM MgCl2, 1 mM EGTA, 1 mM DTT, 50 µg/mL Heparin, BSA 0.15 mg/mL) or B (60 mM β-glycerophosphate, 30 mM p-Nitrophenylphosphate, 25 mM MOPS, 5 mM EGTA, 15 mM MgCl2, 1 mM DTT, 0.1 mM Na vanadate), with their corresponding substrates, in the presence of 15 µM [γ-^33P] ATP (3000 Ci/mmol; 10 mCi/mL) in a final volume of 30 µL. After 30 min incubation at 30 °C, the reaction was stopped by harvesting, using a FilterMate harvester (Packard, Meriden, CT, USA), onto P81 phosphocellulose papers (GE Healthcare, Velizy-Villacoublay, France) which were washed in 1% phosphoric acid. Scintillation fluid was added and the radioactivity measured in a Packard counter. Blank values were subtracted and activities calculated as pmoles of phosphate incorporated during the 30 min incubation. The activities were expressed in a percentage of the maximal activity, i.e., in the absence of inhibitors. Controls were performed with appropriate dilutions of DMSO. CK1 and Haspin peptide substrates were obtained from Proteogenix (Oberhausbergen, France).
Casein kinase 1 (CK1δ/ε) (porcine brain, native) was assayed with 0.67 µg of CKS peptide ([…]pSAYSITA).

[1] = test system: panel of seven representative tumoral cell lines; test: in vitro inhibition of cell proliferation, whole panel; assay type: cell-based; details: all cell lines of the panel, without selectivity; read-out: IC50, moderate antitumor activities in all cell lines of the panel
Experimental: (§1) As an initial effort to investigate their in vitro bioactivity, the new synthesized 3-(4-arylmethylamino)butyl-2-thioxo-1,3-thiazolidine-4-one 9a–n and also their precursors 6a–f were evaluated for their in vitro inhibition of cell proliferation. For this study, we used a panel of seven representative tumoral cell lines, namely HuH7 D12 (differential hepato cellular carcinoma), Caco 2 (differentiating colorectal adenocarcinoma), MDA-MBD231 ([…]), HCT 116 (actively proliferating colorectal adenocarcinoma), PC3 (prostate carcinoma), NCI-H727 (lung carcinoma), HaCat keratinocyte and, diploid skin fibroblasts as normal cell lines for control.
Skin diploid fibroblastic cells were provided by BIOPREDIC International Company (Rennes, France). Caco2 (Ref ECACC: 86010202), Huh-7D12 (Ref ECACC: 01042712), MDA-MB-231 (Ref ECACC: 92020424), HCT-116 (Ref ECACC: 91091005), PC3 (Ref ECACC: 90112714), NCI-H727 (Ref ECACC: 94060303) cell lines were obtained from the ECACC collection and HaCaT (from Cell Lines Service, Eppelheim, Germany). Cells were grown according to ECACC recommendations. […] Cells were fixed in cooled solution of 90% ethanol/5% acetic acid, nuclei were stained with Hoechst 3342 (Sigma) and counted using automated imaging analysis (Cellomics Arrayscan VTI/HCS Reader, Thermo/Scientific, Waltham, MA, USA). The IC50 were graphically determined.

[2] = test system: Huh7 D12 cells (differential hepato cellular carcinoma); test: in vitro inhibition of cell proliferation / survival assay; assay type: cell-based; details: for IC50: Huh-7D12, 48 h, average of three assays, standard error ± 0.5 μM; for viability at 25 µM: Huh-7D12, measured at 25 μM after 48 h, single dose, triplicate
Experimental: as §1
(§2) Skin diploid fibroblastic cells were provided by BIOPREDIC International Company (Rennes, France). Caco2 (Ref ECACC: 86010202), Huh-7D12 (Ref ECACC: 01042712), MDA-MB-231 (Ref ECACC: 92020424), HCT-116 (Ref ECACC: 91091005), PC3 (Ref ECACC: 90112714), NCI-H727 (Ref ECACC: 94060303) cell lines were obtained from the ECACC collection and HaCaT (from Cell Lines Service, Eppelheim, Germany). Cells were grown according to ECACC recommendations. The toxicity test of the compounds on these cells was as follows: 2 × 10^3 cells for HCT-116 cells or 4 × 10^3 for the other cells were seeded in 96 multiwell plates in triplicate and left for 24 h for attachment, spreading and growing. Then, cells were exposed for 48 h to increasing concentrations of the compounds, ranging from 0.1 to 25 μM in a final volume of 120 μL of culture medium. Cells were fixed in cooled solution of 90% ethanol/5% acetic acid, nuclei were stained with Hoechst 3342 (Sigma) and counted using automated imaging analysis (Cellomics Arrayscan VTI/HCS Reader, Thermo/Scientific, Waltham, MA, USA). The IC50 were graphically determined.

[3] = test system: Caco 2 cells (differentiating colorectal adenocarcinoma); test: as above; assay type: cell-based; details: Homo sapiens; for IC50: 48 h, average of three assays, standard error ± 0.5 μM; for viability at 25 µM: measured at 25 μM after 48 h, single dose, triplicate
Experimental: as §1, §2

[4] = test system: NCI-H727 cells (lung carcinoma); test: as above; assay type: cell-based; details: Homo sapiens, NCI-H727; for IC50: 48 h, average of three assays, standard error ± 0.5 μM; for viability at 25 µM: measured at 25 μM after 48 h, single dose, triplicate, read-out: % of Survival
Experimental: as §1, §2

[5] = test system: HCT 116 cells (actively proliferating colorectal adenocarcinoma); test: as above; assay type: cell-based; details: Homo sapiens; for IC50: 48 h, average of three assays, standard error ± 0.5 μM; for viability at 25 µM: measured at 25 μM after 48 h, single dose, triplicate
Experimental: as §1, §2

[6] = test system: PC3 cells (prostate carcinoma); test: as above; assay type: cell-based; details: Homo sapiens; for IC50: PC-3, 48 h, average of three assays, standard error ± 0.5 μM; for viability at 25 µM: PC-3, measured at 25 μM after 48 h, single dose, triplicate
Experimental: as §1, §2

HaCat keratinocyte = test: as above; assay type: cell-based; details: for IC50: 48 h, average of three assays, standard error ± 0.5 μM; for viability at 25 µM: measured at 25 μM after 48 h, single dose, triplicate
Experimental: as §1, §2

MDA-MB231 cells = test: as above; assay type: cell-based; details: Homo sapiens; for IC50: MDA-MB-231, 48 h, average of three assays, standard error ± 0.5 μM; for viability at 25 µM: MDA-MB-231, measured at 25 μM after 48 h, single dose, triplicate
Experimental: as §1, §2

diploid skin fibroblasts = test: in vitro inhibition of cell proliferation / survival assay, normal cells control; assay type: cell-based; details: Skin fibroblast, Fibroblasts; for IC50: 48 h, average of three assays, standard error ± 0.5 μM; for viability at 25 µM: measured at 25 μM after 48 h, single dose, triplicate, read-out: % of Survival
Experimental: as §1, §2

Row | IC50 (SsCK1δ/ε) [µM] | IC50 [1] [µM] | Structure (SMILES) | IC50 [2] [µM] | viability at 25 µM [2] [%] | IC50 [3] [µM] | viability at 25 µM [3] [%] | IC50 [4] [µM] | viability at 25 µM [4] [%] | IC50 [5] [µM] | viability at 25 µM [5] [%] | IC50 [6] [µM] | viability at 25 µM [6] [%] | IC50 (HaCat keratinocyte; Homo sapiens, HaCaT) [µM] | viability at 25 µM (HaCat keratinocyte; Homo sapiens) [%] | IC50 (MDA-MB231 cells) [µM] | viability at 25 µM (MDA-MB231 cells) [%] | IC50 (diploid skin fibroblasts) [µM] | viability at 25 µM (diploid skin fibroblasts) [%] | IC50 (HaCat keratinocyte) [µM]
1 | 6.6 | 10 to 17 | O=C1/C(=C/c2ccc3c(c2)OCO3)SC(=S)N1CCCCNCc1ccc2c(c1)OCO2 [Compound 9h, (5Z)3-[4-(1,3-Benzodioxol-5-ylmethylamino)butyl]-5-(1,3-benzodioxol-5-ylmethylene)-2-thioxo-1,3-thiazolidin-4-one] | 10 | 7 | 14 | 42 | > 25 | 43 | 13 | 65 | 13 | 51 | 10 | 10 | 10 | 49 | > 25 | 80 | 
2 | 5.4 |  | O=C1/C(=C/c2ccc3c(c2)OCCO3)SC(=S)N1CCCCNCc1ccc2c(c1)OCO2 [Compound 9i, (5Z)3-[4-(1,3-Benzodioxol-5-ylmethylamino)butyl]-5-(2,3-dihydro-1,4-benzodioxin-6-ylmethylene)-2-thioxo-1,3-thiazolidin-4-one] | 9 | 5 | 13 | 17 | 11 | 9 | 14 | 8 | 14 | 39 | < 10 | 6 | 9 | 17 | > 25 | 54 | 8
3 | 1.4 |  | O=C1/C(=C/c2ccc(O)cc2)SC(=S)N1CCCCNCc1ccc2c(c1)OCO2 [Compound 9j, (5Z)3-[4-(1,3-Benzodioxol-5-ylmethylamino)butyl]-5-(4-hydroxy-benzylidene)-2-thioxo-1,3-thiazolidin-4-one] | 11 | 22 | 27 | 41 | 19 | 33 | 22 | 40 | 19 | 38 | 13 | 21 | 19 | 42 | > 25 | 77 | 
4 | 2 |  | COc1cc(/C=C2\SC(=S)N(CCCCNCc3ccc4c(c3)OCCO4)C2=O)ccc1O [Compound 9n, (5Z)3-[4-(2,3-Dihydro-benzo[1,4]dioxin-6-ylmethylamino)butyl]-5-(4-hydroxy-3-methoxybenzylidene)-2-thioxo-1,3-thiazolidin-4-one] | 15 | 41 | 16 | 28 | 17 | 63 | 21 | 52 | 19 | 61 | 15 | 48 | 15 | 55 | > 25 | 86 | 
